In patent US11584714B2 (priority 2018, dated 2023):
Where a name gives a salt, the structure may show the parent alone. Read-outs that look alike come from different tables or passages of the source.

Experiments:
[1] = target: MASP-2 (CCP1-CCP2-SP) (Homo sapiens (Human), UniProt O00187); test: biochemical; assay type: biochemical
[2] = target: human α-thrombin (Homo sapiens (Human), UniProt P00734); test: Enzymatic assay for thrombin (Boc-VPR-AMC substrate); assay type: biochemical
[3] = MASP-2 inhibition versus thrombin
[4] = selectivity for MASP-2 inhibition versus thrombin

Chain of MASP-2 (CCP1-CCP2-SP) (O00187 445-686): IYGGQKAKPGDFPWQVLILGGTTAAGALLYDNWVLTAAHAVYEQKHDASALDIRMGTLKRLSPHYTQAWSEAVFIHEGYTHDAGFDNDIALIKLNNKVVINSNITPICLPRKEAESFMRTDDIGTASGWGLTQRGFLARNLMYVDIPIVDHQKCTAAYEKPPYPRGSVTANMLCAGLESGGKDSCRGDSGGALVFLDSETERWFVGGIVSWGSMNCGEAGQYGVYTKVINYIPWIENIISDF

| SMILES | MASP-2 vs. thrombin selectivity [1, 3] | Ki ([1]; read-out: MASP-2 Ki) | Ki ([2]; read-out: Thrombin Ki) | Ki [1] | further results |
| --- | --- | --- | --- | --- | --- |
| C[C@H](NC(=O)[C@@H](CCc1ccccc1)NCC(=O)O)C(=O)NCc1ccc(C(=N)N)cc1 [compound 1110] | * (1.0 to 5.0-fold) | < 0.5 µM | < 0.5 µM |  |  |
| C[C@H](NC(=O)[C@@H](CCc1ccccc1)NC1CCCC1)C(=O)NCc1ccc(C(=N)N)cc1 [compound 1122] | −− (less than 1.0-fold) | < 0.5 µM | < 0.5 µM |  |  |
| N=C(N)c1ccc(CNC(=O)[C@@H]2CCN2C(=O)[C@@H](CCc2ccccc2)NCC(=O)O)cc1 [compound 1124] | −− (less than 1.0-fold) | < 0.5 µM | < 0.5 µM |  |  |
| C[C@H](NC(=O)[C@@H](CCc1ccccc1)NCc1ccccc1N1CCN(C)CC1)C(=O)NCc1ccc(C(=N)N)cc1 [compound 1232, (R)—N—((S)-1-((4-Carbamimidoylbenzyl)amino)-1-oxopropan-2-yl)-2-((2-(4-methylpiperazin-1-yl)benzyl)amino)-4-phenylbutanamide] |  |  | < 0.5 µM | 0.5 to 2.5 µM | MASP-2 vs. thrombin selectivity [1, 4]: −− (<1.0-fold) |
| CCCCCCOC(=O)NC(=N)c1ccc(CNC(=O)[C@H](C)NC(=O)[C@H]2C[C@H](c3ccccc3)CN2)cc1 [compound 1260, Hexyl (imino(4-(((S)-2-((2R,4R)-4-phenylpyrrolidine-2-carboxamido)propanamido)methyl)phenyl)methyl)carbamate] |  | 2.5 to 10 µM | > 25 µM |  |  |
| N=C(N)c1ccc2[nH]c(-c3cccc(-c4ccc(F)cc4)n3)nc2c1 [compound 2016, 2-(6-(4-fluorophenyl)pyridin-2-yl)-benzo[d]imidazole-5-carboximidamide dihydrochloride] |  |  |  | > 25 µM | MASP-2 versus thrombin selectivity ([1]; +Zn): +++ (+Zn) (25 to 100-fold); Ki ([1]; +Zn, read-out: MASP-2 Ki): < 0.5 µM; Ki ([2]; +EDTA, read-out: Thrombin Ki): < 25 µM; Ki ([2]; +Zn, read-out: Thrombin Ki): < 25 µM |
| Cc1ccc(-c2nc3cc(C(=N)N)ccc3[nH]2)nc1 [compound 2010, 2-(5-methylpyridin-2-yl)-1H-benzo[d]imidazole-5-carboximidamide dihydrochloride] |  |  |  | > 25 µM | MASP-2 versus thrombin selectivity ([1]; +Zn): ++ (+Zn) (5.0 to 25-fold); Ki ([1]; +Zn, read-out: MASP-2 Ki): < 0.05 µM; Ki ([2]; +EDTA, read-out: Thrombin Ki): < 25 µM; Ki ([2]; +Zn, read-out: Thrombin Ki): < 2.5 µM |
| C[C@H](NC(=O)[C@H](N)CCc1cc(F)ccc1F)C(=O)NCc1ccc(C(=N)N)cc1 [compound 1086] | ** (5.0 to 25-fold) | < 0.5 µM | < 0.5 µM |  |  |
| COc1ccc(CC[C@@H](N)C(=O)N[C@@H](C)C(=O)NCc2ccc(C(=N)N)cc2)cc1 [compound 1076] | ** (5.0 to 25-fold) | < 0.5 µM | < 0.5 µM |  |  |
| N=C(N)c1ccc2[nH]c(-c3cc4ccccc4cn3)nc2c1 [compound 2014, 2-(isoquinolin-3-yl)-1H-benzo[d]imidazole-5-carboximidamide dihydrochloride] |  |  |  | > 25 µM | MASP-2 versus thrombin selectivity ([1]; +Zn): +++ (+Zn) (25 to 100-fold); Ki ([1]; +Zn, read-out: MASP-2 Ki): < 0.5 µM; Ki ([2]; +EDTA, read-out: Thrombin Ki): < 25 µM; Ki ([2]; +Zn, read-out: Thrombin Ki): < 2.5 µM |
| Cc1cccc(-c2nc3cc(C(=N)N)ccc3[nH]2)n1 [compound 2003, 2-(6-methylpyridin-2-yl)-1H-benzo[d]imidazole-5-carboximidamide] |  |  |  | > 25 µM | MASP-2 versus thrombin selectivity ([1]; +Zn): +++ (+Zn) (25 to 100-fold); Ki ([1]; +Zn, read-out: MASP-2 Ki): < 0.05 µM; Ki ([2]; +Zn, read-out: Thrombin Ki): < 2.5 µM; Ki ([2]; Thrombin Ki (μM), +EDTA): > 25 µM |
| Cc1ccc([C@H]2CN[C@@H](C(=O)N[C@@H](C)C(=O)NCc3ccc(C(=N)N)cc3)C2)cc1 [compound 1252, (2R,4S)—N—((S)-1-((4-Carbamimidoylbenzyl)amino)-1-oxopropan-2-yl)-4-(p-tolyl)pyrrolidine-2-carboxamide] |  | < 0.5 µM |  |  | MASP-2 vs. thrombin selectivity [1, 4]: *** (≥25 to <100-fold); Ki ([2]; Thrombin Ki (μM)): 2.5 to 10 µM |
| COc1cc(CC[C@@H](N)C(=O)N[C@@H](C)C(=O)NCc2ccc(C(=N)N)cc2)cc(OC)c1 [compound 1112] | ** (5.0 to 25-fold) | < 0.5 µM | < 0.5 µM |  |  |
| CCc1cccc(-c2nc3cc(C(=N)N)ccc3[nH]2)n1 [compound 2008, 2-(6-ethylpyridin-2-yl)-1H-benzo[d]imidazole-5-carboximidamide dihydrochloride] |  |  |  | > 25 µM | MASP-2 versus thrombin selectivity ([1]; +Zn): +++ (+Zn) (25 to 100-fold); Ki ([1]; +Zn, read-out: MASP-2 Ki): < 0.5 µM; Ki ([2]; +Zn, read-out: Thrombin Ki): < 10 µM; Ki ([2]; Thrombin Ki (μM), +EDTA): > 25 µM |
| C[C@H](NC(=O)[C@@H](CCc1ccccc1)NCc1ccc(N2CCN(C)CC2)cc1)C(=O)NCc1ccc(C(=N)N)cc1 [compound 1152] | * (1.0 to 5.0-fold) | < 0.5 µM | < 0.5 µM |  |  |
| Cc1ccnc(-c2nc3cc(C(=N)N)ccc3[nH]2)c1 [compound 2005, 2-(4-methylpyridin-2-yl)-1H-benzo[d]imidazole-5-carboximidamide dihydrochloride] |  |  |  | > 25 µM | MASP-2 versus thrombin selectivity ([1]; +Zn): + (+Zn) (1.0 to 5.0-fold); Ki ([1]; +Zn, read-out: MASP-2 Ki): < 0.05 µM; Ki ([2]; +Zn, read-out: Thrombin Ki): < 0.05 µM; Ki ([2]; Thrombin Ki (μM), +EDTA): > 25 µM |
| N=C(N)c1ccc2[nH]c(-c3ccccn3)nc2c1 [compound 2001, 2-(Pyridin-2-yl)-1H-benzo[d]imidazole-5-carboximidamide Dihydrochloride] |  |  |  | > 25 µM | MASP-2 versus thrombin selectivity ([1]; +Zn): ++ (+Zn) (5.0 to 25-fold); Ki ([1]; +Zn, read-out: MASP-2 Ki): < 0.5 µM; Ki ([2]; +Zn, read-out: Thrombin Ki): < 2.5 µM; Ki ([2]; Thrombin Ki (μM), +EDTA): > 25 µM |
| N=C(N)c1ccc(CNC(=O)[C@@H]2CCCN2C(=O)[C@H](N)C2CCCCC2)cc1 [compound 1027] | −− (less than 1.0-fold) | < 0.5 µM | < 0.5 µM |  |  |
| C[C@H](NC(=O)[C@H](N)CCc1ccc(F)c(F)c1)C(=O)NCc1ccc(C(=N)N)cc1 [compound 1085] | ** (5.0 to 25-fold) | < 0.5 µM | < 0.5 µM |  |  |
| C[C@H](NC(=O)[C@H](N)CCc1cc(F)cc(F)c1)C(=O)NCc1ccc(C(=N)N)cc1 [compound 1087] | ** (5.0 to 25-fold) | < 0.5 µM | < 0.5 µM |  |  |
| C[C@H](NC(=O)[C@H](N)Cc1ccc2ccccc2c1)C(=O)NCc1ccc(C(=N)N)cc1 [compound 1093] | −− (less than 1.0-fold) | < 0.5 µM | < 0.5 µM |  |  |
| N=C(N)c1ccc(CNC(=O)[C@@H]2CCN2C(=O)[C@H](N)C2Cc3ccccc3C2)cc1 [compound 1058, (S)-1-((R)-2-Amino-2-(2,3-dihydro-1H-inden-2-yl)acetyl)-N-(4-carbamimidoylbenzyl)azetidine-2-carboxamide] | −− (less than 1.0-fold) | < 0.5 µM | < 0.5 µM |  |  |
| N=C(N)c1ccc(CNC(=O)[C@@H]2CCN2C(=O)[C@H](O)C2CCCCC2)cc1 [compound 1020] | −− (less than 1.0-fold) | < 0.5 µM | < 0.5 µM |  |  |
| Cc1cc(N)ncc1CNC(=O)[C@H](C)NC(=O)[C@H](N)CCc1ccccc1 [compound 1243, (R)-2-Amino-N—((S)-1-(((6-amino-4-methylpyridin-3-yl)methyl)amino)-1-oxopropan-2-yl)-4-phenylbutanamide] |  |  | > 25 µM | 10 to 25 µM |  |
| C[C@H](NC(=O)[C@H](N)CCc1ccccc1)C(=O)NCc1cc(Cl)ccc1[N+](=O)[O-] [compound 1246, (R)-2-Amino-N—((S)-1-((5-chloro-2-nitrobenzyl)amino)-1-oxopropan-2-yl)-4-phenylbutanamide] |  |  |  | 10 to 25 µM | MASP-2 vs. thrombin selectivity [1, 4]: * (≥1.0 to <5.0-fold); Ki ([2]; Thrombin Ki (μM)): 10 to 25 µM |
| C[C@H](NC(=O)[C@H](N)CCc1ccc(F)cc1F)C(=O)NCc1ccc(C(=N)N)cc1 [compound 1084] | ** (5.0 to 25-fold) | < 0.5 µM | < 0.5 µM |  |  |
| N=C(N)c1ccc2[nH]c(Cc3ccccn3)nc2c1 [compound 2002, 2-(Pyridin-2-ylmethyl)-1H-benzo[d]imidazole-5-carboximidamide Dihydrochloride] |  |  |  | > 25 µM | Ki ([1]; +Zn, read-out: MASP-2 Ki): < 2.5 µM; Ki ([2]; +Zn, read-out: Thrombin Ki): < 25 µM; Ki ([2]; Thrombin Ki (μM), +EDTA): > 25 µM |
| C[C@H](NC(=O)[C@H]1C[C@H](c2ccccc2)CN1)C(=O)NCc1ccc(C(=N)NC(=O)OCc2ccccc2)cc1 [compound 1259, Benzyl (imino(4-(((S)-2-((2R,4R)-4-phenylpyrrolidine-2-carboxamido)propanamido)methyl)phenyl)methyl)carbamate] |  |  | > 25 µM | 2.5 to 10 µM |  |
| N=C(N)c1ccc(CNC(=O)[C@@H]2CCN2C(=O)[C@H](NCC(=O)O)C2CC2)cc1 [compound 1028, ((R)-2-((S)-2-((4-carbamimidoylbenzyl)carbamoyl)azetidin-1-yl)-1-cyclopropyl-2-oxoethyl)glycine] |  |  | < 0.5 µM |  |  |
